Target: T1, 5-HT4 receptor (Cavia porcellus, UniProt O70528)
T1 construct: Longitudinal muscle-myenteric plexus preparations, approximately 3 cm long, are obtained from the distal colon region; from tissue; host or cells: guinea-pig distal colon longitudinal muscle-myenteric plexus
Assay: Guinea pig colon 5-HT4 receptor antagonist activity (5-HT evoked contraction of longitudinal muscle-myenteric plexus)
Conditions: guinea-pig distal colon longitudinal muscle-myenteric plexus; contractions evoked by 5-HT; methiothepin 10^-7M and granisetron 10^-6M present; read-out: pIC50 (-log concentration of antagonist which reduces the contraction by 50%) (converted)
Method: 5-HT4 Receptor Antagonist Activity
Male guinea-pigs, weighing 250-400 g are used. Longitudinal muscle-myenteric plexus preparations, approximately 3 cm long, are obtained from the distal colon region. These are suspended under a 0.5 g load in isolated tissue baths containing Krebs solution bubbled with 5% CO2 in O2 and maintained at 37° C. In all experiments, the Krebs solution also contains methiothepin 10^-7M and granisetron 10^-6M to block effects at 5-HT1, 5-HT2 and 5-HT3 receptors.
After construction of a simple concentration-response curve with 5-HT, using 30 s contact times and a 15 min dosing cycle, a concentration of 5-HT is selected so as to obtain a contraction of the muscle approximately 40-70% maximum(10^-9M approx). The tissue is then alternately dosed every 15 min with this concentration of 5-HT and then with an approximately equi-effective concentration of the nicotine receptor stimulant, dimethylphenylpiperazinium (DMPP). After obtaining consistent responses to both 5-HT and DMPP, increasing concentrations of a putative 5-HT4 receptor antagonist are then added to the bathing solution. The effects of this compound are then determined as a percentage reduction of the contractions evoked by 5-HT or by DMPP. […] A compound which reduces the response to 5-HT but not to DMPP is believed to act as a 5-HT4 receptor antagonist.

T1 sequence (O70528 whole entry): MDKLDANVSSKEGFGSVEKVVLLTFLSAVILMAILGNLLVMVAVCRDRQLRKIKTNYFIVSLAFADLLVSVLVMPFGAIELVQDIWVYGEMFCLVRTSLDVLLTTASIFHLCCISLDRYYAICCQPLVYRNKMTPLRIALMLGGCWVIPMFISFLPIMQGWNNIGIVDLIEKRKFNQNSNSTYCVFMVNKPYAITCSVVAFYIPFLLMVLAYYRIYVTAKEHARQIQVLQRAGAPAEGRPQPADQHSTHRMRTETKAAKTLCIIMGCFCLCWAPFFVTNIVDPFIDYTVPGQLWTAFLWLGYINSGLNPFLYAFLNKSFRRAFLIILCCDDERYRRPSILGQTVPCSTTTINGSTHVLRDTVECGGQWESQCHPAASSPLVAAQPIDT

`CCCCN1CCC(CCC(=O)c2cn(C)c3ccccc23)CC1` [Example 1, 1-(1-Methyl-1H-indol-3-yl)-3-(1-butylpiperidin-4-yl)propan-1-one] was tested, and the IC50 was 158 nM.

Reference: US20060094702A1, “5-HT4 receptor antagonists” (SMITHKLINE BEECHAM P.L.C., priority 1993, published 2006)
